The values that follow come from patent US12655072B2, “Formulation system for compositions for enhancing nitrogen stabilizers” (Verdesian Life Sciences U.S., LLC, priority 2020, dated 2026).

One data set relates to nitrate reductase enzyme. The experiment in a line: Field study: activity of nitrate reductase enzyme in the leaves. The format is in vivo, corn. Here is the method: (§1) The activity of nitrate reductase enzyme at V2-V3 and flowering (first fully developed leaf, three plants per plot) was measured. In addition, soil collection was performed for the determination of N-NO3 and N-NH4 up to 30 days after the application of the cover. This methodology was adapted by Cataldo et al (1975) and Kemper; Zewers (1986). Soil Fertility Center ([…]). Growth analysis was performed on dry plant mass every 30 days. Harvesting was performed at physiological maturity. The plants of the three central lines of each plot was harvested excluding 1.0 meter at each end. The rows were measured and the number of plants and ears per row harvested were counted. After harvesting, manual threshing was performed and the 100 grain mass was determined as well as the yield of the crop. Harvest results were estimated for kg/ha and bu/acre.

Data set [1] has as its system corn hybrid AG 8088 VT PRO. The experiment in a line: Field study, no-till rainfed corn: harvest, dry plant mass, N content. The format is in vivo. The note with it: 135 kg/ha of N. The procedure: A field study was carried out of an area under no-till system that was cultivated with rainfed corn (i.e., without irrigation). The corn cultured was a corn hybrid AG 8088 VT PRO (High yield) with a Standak Top of 100 mL/ha and a plant density of 77,000 plants/ha. The following three formulations were applied at three different rates ([…]) to a field: • Trident Formulation (10-10-10; % polymer-% DCD-% NBPT) • Trident V Formulation (5-5-15; % polymer-% DCD-% NBPT) • Trident N Formulation (5-20-5; % polymer-% DCD-% NBPT)
As a control, plants were only treated with the nitrogen fertilizer (e.g., UAN with 30%-45% N) or were left untreated.
The nitrogen fertilizer was applied with 135 kg/ha of N, which corresponds to a dose of 75N/bu for 10.8 ton/ha of maize. In addition a typical herbicide, fungicide and insecticide program was adopted to remove all study variability due to weeds, diseases or insects throughout the study period;
The activity of nitrate reductase enzyme at V2-V3 and flowering (first fully developed leaf, three plants per plot) was measured. In addition, soil collection was performed for the determination of N—NO3 and N—NH4 up to 30 days after the application of the cover. This methodology was adapted by Cataldo et al (1975) and Kemper; Zewers (1986). Soil Fertility Center (CEFERT). Growth analysis was performed on dry plant mass every 30 days. Harvesting was performed at physiological maturity. The plants of the three central lines of each plot was harvested excluding 1.0 meter at each end. The rows were measured and the number of plants and ears per row harvested were counted. After harvesting, manual threshing was performed and the 100 grain mass was determined as well as the yield of the crop. Harvest results were estimated for kg/ha and bu/acre.

The next data set deals with soil. The experiment in a line: Field study: soil collection for determination of N-NO3 and N-NH4. The format is in vivo. Here is the method:
as §1

For data set [2] the following is noted: cited from earlier work.
Setting [3] is: first collection within 30 days.
[4] abbreviates: second collection within 30 days.

Turning to `NC(N)=O` [Urea N, urea], the “1 ANR (activity of the enzyme nitrate reductase in the leaves)” value in the data set on nitrate reductase enzyme (first measurement (measured at V2-V3 and flowering)) was 137.51. Moreover, the “2 ANR (activity of the enzyme nitrate reductase in the leaves)” value in the data set with nitrate reductase enzyme (second measurement (measured at V2-V3 and flowering)) amounted to 74.82. Further, in data set [1], the “MSCaule (production of dry mass of corn plants: corn plant stems)” value is 148.04 g plant−1, the MSEspiga was determined as 191.75 g plant−1, the “MSFolhas (production of dry mass of corn plants: leaves)” value came out at 80.28 g plant−1 and the “MSTotal (production of total dry mass of corn plants)” value amounted to 420.06 g plant−1. In addition, in data set [1], the “N Folha (leaf nitrogen content)” value is on record as 2.24 dag kg−1 and the “N Grão” value came out at 115.04 kg ha−1. Further, the “grains of corn on the corn ear (FIG. 3)” value in data set [1] (compared to untreated) is recorded as “exhibited more grains of corn compared to ears that were untreated”. In the data set on soil (setting [3]), the “1 NH4 (NH4 values in the soil)” value is 31.97 mg/kg and the “1 NO3 (NO3 values in the soil)” value came to 34.16 mg/kg. Also, in the data set with soil (setting [4]), the “2 NH4 (NH4 values in the soil)” value was 25.93 mg/kg and the “2 NO3 (NO3 values in the soil)” value is 27.07 mg/kg.

For `N#CN=C(N)N` [dicyandiamide], the solubility in water result in data set [2] is on record as “about 41 g/l”.
